Assay results: US20060069132A1, “Azolecarboxamide herbicides” (priority 2004, published 2006)

Key:
Assay in all cases: Test E pre-/postemergence herbicide test
dallisgrass = assay type: in vivo, Paspalum dilatatum
In short: (§1)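 Visual 0–100 rating vs untreated controls (0 = no effect, 100 = complete control), 12–14 d after treatment in greenhouse. Pre- and postemergence (2–18 cm, 1- to 4-leaf) applications; compounds in non-phytotoxic solvent with surfactant.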

itchgrass = assay type: in vivo, Rottboellia cochinchinensis
In short: as §1

purple nutsedge = assay type: in vivo, Cyperus rotundus
In short: as §1

mustard = assay type: in vivo, Brassica nigra
In short: as §1

pitted morningglory = assay type: in vivo, Ipomoea lacunosa
In short: as §1

southern sandbur = assay type: in vivo, Cenchrus echinatus
In short: as §1

field bindweed = assay type: in vivo, Convolvulus arvensis
In short: as §1

prickly sida = assay type: in vivo, Sida spinosa
Excerpt: Seeds of plant species selected from bipinnate beggarticks (Bidens bipinnata L.), hairy beggarticks (Bidens radiata Thuill.), bermudagrass (Cynodon dactylon (L.) Pers.), Surinam grass (Urochloa decumbens (Staph) R. D. Webster, previously named Brachiaria decumbens Stapf), large crabgrass (Digitaria sanguinalis (L.) Scop.), green foxtail (Setaria viridis (L.) P. Beauv.), goosegrass (Eleusine indica (L.) Gaertn.), johnsongrass (Sorghum halepense (L.) Pers.), kochia (Kochia scoparia (L.) Schrad.), pitted morningglory (Ipomoea lacunosa L.), purple nutsedge (Cyperus rotundus L.), common ragweed (Ambrosia elatior L.), mustard (Brassica nigra (L.) W. D. J. Koch), guineagrass (Panicum maximum Jacq.), dallisgrass (Paspalum dilatatum Poir.), barnyardgrass (Echinochloa crus-galli (L). P. Beauv.), southern sandbur (Cenchrus echinatus L.), common sowthistle (Sonchus oleraceous L.), prickly sida (Sida spinosa L.), Italian ryegrass (Lolium multiflorum Lam.), common purslane (Portulaca oleracea L.), broadleaf signalgrass (Brachiaria platyphylla (Griseb.) Nash), common groundsel (Senecio vulgaris L.), common chickweed (Stellaria media (L.) Vill/Cyr.), tropical spiderwort (Commelina benghalensis L.), annual bluegrass (Poa annua L.), downy bromegrass (Bromus tectorum L.), itchgrass (Rottboellia cochinchinensis (L.) L.f.), quackgrass (Elytrigia repens (L.) Nevski), Canada horseweed (Erigeron Canadensis L.), field bindweed (Convolvulus arvensis L.), spotted spurge (Euphorbia maculata L.), common mallow (Malva sylvestris (=s silvestris) L.), and Russian thistle (Salsola kali L. ssp. Ruthenica (Iljin) Soo) were planted and treated preemergence with test chemicals formulated in a non-phytotoxic solvent mixture which included a surfactant.
At the same time, plants selected from these weed species were treated with postemergence applications of some of the test chemicals formulated in the same manner. Plants ranged in height from 2 to 18 cm (1- to 4-leaf stage) for postemergence treatments. Treated plants and controls were maintained in a greenhouse for 12 to 14 days, after which time all species were compared to controls and visually evaluated. Plant response ratings, summarized in Table E, are based on a scale of 0 to 100 where 0 is no effect and 100 is complete control. A dash (-) response means no test result.

green foxtail = assay type: in vivo, Setaria viridis
In short: as §1

common sowthistle = assay type: in vivo, Sonchus oleraceous
In short: as §1

[1] = Preemergence, 62 g ai/ha, scale 0 to 100
[2] = Preemergence, 125 g ai/ha, scale 0 to 100
[3] = Preemergence, 250 g ai/ha, scale 0 (no effect) to 100 (complete control)
[4] = Preemergence, 500 g ai/ha, scale 0 (no effect) to 100 (complete control)
[5] = Postemergence, 500 g ai/ha, scale 0 to 100
[6] = Postemergence, 250 g ai/ha, scale 0 to 100
[7] = Preemergence, 375 g ai/ha, scale 0 (no effect) to 100 (complete control)
[8] = postemergence, 125 g ai/ha, scale 0 to 100
[9] = postemergence, 62 g ai/ha, scale 0 to 100

For `CCc1nn(C(C)(C)C)nc1C(=O)Nc1cccc(C(=S)N(C)C)c1` [Compound 395], the “Plant response rating, Dallisgrass” value (dallisgrass; [1]) was 50, the “Plant response rating, Dallisgrass” value (dallisgrass; [2]) was 70 and the “Plant response rating, Dallisgrass” value (dallisgrass; [3]) was 90. The “Plant response rating, Dallisgrass” value (dallisgrass; [4]) was 90, the “Plant response rating, Itchgrass” value (itchgrass; [1]) was 20 and the “Plant response rating, Itchgrass” value (itchgrass; [2]) was 60. For the same molecule, the “Plant response rating, Itchgrass” value (itchgrass; [3]) was 60, the “Plant response rating, Itchgrass” value (itchgrass; [4]) was 80 and the “Plant response rating, Nutsedge, Purple” value (purple nutsedge; [2]) was 50. For the same molecule, the “Plant response rating, Nutsedge, Purple” value (purple nutsedge; [3]) was 70, the “Plant response rating, Nutsedge, Purple” value (purple nutsedge; [4]) was 80 and the “Plant response rating, Black Mustard” value (mustard; [1]) was 40. For the same molecule, the “Plant response rating, Black Mustard” value (mustard; [2]) was 60, the “Plant response rating, Black Mustard” value (mustard; [3]) was 90 and the “Plant response rating, Black Mustard” value (mustard; [4]) was 95. The “Plant response rating, Morningglory” value (pitted morningglory; [1]) was 20, the “Plant response rating, Morningglory” value (pitted morningglory; [2]) was 40 and the “Plant response rating, Morningglory” value (pitted morningglory; [3]) was 75. For the same molecule, the “Plant response rating, Morningglory” value (pitted morningglory; [4]) was 75, the “Plant response rating, Sandbur” value (southern sandbur; [1]) was 50 and the “Plant response rating, Sandbur” value (southern sandbur; [2]) was 60. For the same molecule, the “Plant response rating, Sandbur” value (southern sandbur; [3]) was 80, the “Plant response rating, Sandbur” value (southern sandbur; [4]) was 80 and the “Plant response rating, Bindweed, Field” value (field bindweed; [1]) was 10. For the same molecule, the “Plant response rating, Bindweed, Field” value (field bindweed; [2]) was 40, the “Plant response rating, Bindweed, Field” value (field bindweed; [3]) was 60 and the “Plant response rating, Bindweed, Field” value (field bindweed; [4]) was 70. The “Plant response rating, Prickly Sida” value (prickly sida; [1]) was 60, the “Plant response rating, Prickly Sida” value (prickly sida; [2]) was 95 and the “Plant response rating, Prickly Sida” value (prickly sida; [3]) was 95. The “Plant response rating, Prickly Sida” value (prickly sida; [4]) was 95, the “Plant response rating, Foxtail, Green” value (green foxtail; [1]) was 10 and the “Plant response rating, Foxtail, Green” value (green foxtail; [2]) was 40. The “Plant response rating, Foxtail, Green” value (green foxtail; [3]) was 80 and the “Plant response rating, Foxtail, Green” value (green foxtail; [4]) was 90.
For `CCn1nc(C(C)(C)C)cc1C(=O)Nc1cc(C(=S)N(C)C)ccc1F` [Compound 294], the “Plant response rating, Dallisgrass” value (dallisgrass; [5]) was 70, the “Plant response rating, Dallisgrass” value (dallisgrass; [6]) was 60 and the “Plant response rating, Dallisgrass” value (dallisgrass; [2]) was 75. For the same molecule, the “Plant response rating, Dallisgrass” value (dallisgrass; [3]) was 80, the “Plant response rating, Dallisgrass” value (dallisgrass; [7]) was 95 and the “Plant response rating, Dallisgrass” value (dallisgrass; [4]) was 95. For the same molecule, the “Plant response rating, Dallisgrass” value (dallisgrass; [8]) was 40, the “Plant response rating, Dallisgrass” value (dallisgrass; [9]) was 10 and the “Plant response rating, Itchgrass” value (itchgrass; [5]) was 80. For the same molecule, the “Plant response rating, Itchgrass” value (itchgrass; [6]) was 75, the “Plant response rating, Itchgrass” value (itchgrass; [3]) was 75 and the “Plant response rating, Itchgrass” value (itchgrass; [7]) was 95. The “Plant response rating, Itchgrass” value (itchgrass; [4]) was 100, the “Plant response rating, Itchgrass” value (itchgrass; [8]) was 70 and the “Plant response rating, Itchgrass” value (itchgrass; [9]) was 50. The “Plant response rating, Nutsedge, Purple” value (purple nutsedge; [5]) was 90, the “Plant response rating, Nutsedge, Purple” value (purple nutsedge; [6]) was 80 and the “Plant response rating, Nutsedge, Purple” value (purple nutsedge; [2]) was 80. For the same molecule, the “Plant response rating, Nutsedge, Purple” value (purple nutsedge; [3]) was 80, the “Plant response rating, Nutsedge, Purple” value (purple nutsedge; [7]) was 80 and the “Plant response rating, Nutsedge, Purple” value (purple nutsedge; [4]) was 90. For the same molecule, the “Plant response rating, Nutsedge, Purple” value (purple nutsedge; [8]) was 70, the “Plant response rating, Nutsedge, Purple” value (purple nutsedge; [9]) was 50 and the “Plant response rating, Black Mustard” value (mustard; [5]) was 95. The “Plant response rating, Black Mustard” value (mustard; [6]) was 90, the “Plant response rating, Black Mustard” value (mustard; [2]) was 100 and the “Plant response rating, Black Mustard” value (mustard; [3]) was 100. The “Plant response rating, Black Mustard” value (mustard; [7]) was 100, the “Plant response rating, Black Mustard” value (mustard; [4]) was 100 and the “Plant response rating, Black Mustard” value (mustard; [8]) was 90. For the same molecule, the “Plant response rating, Black Mustard” value (mustard; [9]) was 70, the “Plant response rating, Morningglory” value (pitted morningglory; [5]) was 20 and the “Plant response rating, Morningglory” value (pitted morningglory; [6]) was 20. The “Plant response rating, Morningglory” value (pitted morningglory; [2]) was 10, the “Plant response rating, Morningglory” value (pitted morningglory; [3]) was 10 and the “Plant response rating, Morningglory” value (pitted morningglory; [7]) was 40. The “Plant response rating, Morningglory” value (pitted morningglory; [4]) was 70, the “Plant response rating, Morningglory” value (pitted morningglory; [8]) was 10 and the “Plant response rating, Morningglory” value (pitted morningglory; [9]) was 0. For the same molecule, the “Plant response rating, Sowthistle” value (common sowthistle; [5]) was 80, the “Plant response rating, Sowthistle” value (common sowthistle; [2]) was 80 and the “Plant response rating, Sowthistle” value (common sowthistle; [3]) was 95. For the same molecule, the “Plant response rating, Sowthistle” value (common sowthistle; [7]) was 100, the “Plant response rating, Sowthistle” value (common sowthistle; [4]) was 100 and the “Plant response rating, Sowthistle” value (common sowthistle; [8]) was 60. For the same molecule, the “Plant response rating, Sowthistle” value (common sowthistle; [9]) was 60, the “Plant response rating, Sandbur” value (southern sandbur; [5]) was 80 and the “Plant response rating, Sandbur” value (southern sandbur; [6]) was 75. The “Plant response rating, Sandbur” value (southern sandbur; [2]) was 70, the “Plant response rating, Sandbur” value (southern sandbur; [3]) was 80 and the “Plant response rating, Sandbur” value (southern sandbur; [7]) was 95. The “Plant response rating, Sandbur” value (southern sandbur; [4]) was 100, the “Plant response rating, Sandbur” value (southern sandbur; [8]) was 50 and the “Plant response rating, Sandbur” value (southern sandbur; [9]) was 10. The “Plant response rating, Bindweed, Field” value (field bindweed; [5]) was 70, the “Plant response rating, Bindweed, Field” value (field bindweed; [6]) was 50 and the “Plant response rating, Bindweed, Field” value (field bindweed; [2]) was 10. The “Plant response rating, Bindweed, Field” value (field bindweed; [3]) was 90, the “Plant response rating, Bindweed, Field” value (field bindweed; [7]) was 95 and the “Plant response rating, Bindweed, Field” value (field bindweed; [4]) was 100. For the same molecule, the “Plant response rating, Bindweed, Field” value (field bindweed; [8]) was 50, the “Plant response rating, Bindweed, Field” value (field bindweed; [9]) was 10 and the “Plant response rating, Prickly Sida” value (prickly sida; [5]) was 100. For the same molecule, the “Plant response rating, Prickly Sida” value (prickly sida; [6]) was 80, the “Plant response rating, Prickly Sida” value (prickly sida; [2]) was 100 and the “Plant response rating, Prickly Sida” value (prickly sida; [3]) was 100. The “Plant response rating, Prickly Sida” value (prickly sida; [7]) was 100, the “Plant response rating, Prickly Sida” value (prickly sida; [4]) was 100 and the “Plant response rating, Prickly Sida” value (prickly sida; [8]) was 70. For the same molecule, the “Plant response rating, Prickly Sida” value (prickly sida; [9]) was 50, the “Plant response rating, Foxtail, Green” value (green foxtail; [5]) was 85 and the “Plant response rating, Foxtail, Green” value (green foxtail; [6]) was 80. The “Plant response rating, Foxtail, Green” value (green foxtail; [2]) was 80, the “Plant response rating, Foxtail, Green” value (green foxtail; [3]) was 100 and the “Plant response rating, Foxtail, Green” value (green foxtail; [7]) was 100. For the same molecule, the “Plant response rating, Foxtail, Green” value (green foxtail; [4]) was 100, the “Plant response rating, Foxtail, Green” value (green foxtail; [8]) was 60 and the “Plant response rating, Foxtail, Green” value (green foxtail; [9]) was 40.
